Results: patent publication US7799775B2, “Pyrimidine derivatives” (ASKA Pharmaceutical Co., Ltd., priority 2004, dated 2010)

Experiments:
5-HT3 receptor = target: T1, 5-HT3 receptor (Rattus norvegicus, UniProt P35563); experiment: Measurement of 5-HT3 receptor antagonistic action on rats (in vivo): inhibition of serotonin-induced bradycardia (BJ reflex); conditions: anesthetized SD male rats, serotonin 300 μg/kg 10 minutes later
T1 construct: from tissue; host or cells: whole animal (SD male rats), serotonin-induced bradycardia
T1 sequence (P35563 24-483): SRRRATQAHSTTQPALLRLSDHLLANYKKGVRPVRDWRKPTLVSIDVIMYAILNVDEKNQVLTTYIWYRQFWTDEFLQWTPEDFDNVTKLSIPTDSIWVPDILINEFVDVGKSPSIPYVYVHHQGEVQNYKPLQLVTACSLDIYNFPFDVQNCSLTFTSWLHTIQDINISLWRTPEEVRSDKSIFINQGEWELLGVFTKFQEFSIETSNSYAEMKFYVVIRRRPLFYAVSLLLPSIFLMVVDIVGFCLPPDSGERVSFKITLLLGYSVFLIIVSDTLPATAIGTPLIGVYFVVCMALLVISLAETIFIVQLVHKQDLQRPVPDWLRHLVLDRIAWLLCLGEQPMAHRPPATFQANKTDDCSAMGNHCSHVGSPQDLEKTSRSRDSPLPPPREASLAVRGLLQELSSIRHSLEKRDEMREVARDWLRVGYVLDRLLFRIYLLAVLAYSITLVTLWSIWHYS
Description: (4) Measurement of 5-HT3 Receptor Antagonistic Action on Rats (in Vivo)
SD male rats (weighing 270-410 g) were anesthetized by peritoneal administration of 1.25 g/kg of urethane (as dissolved in distilled water), and then catheters for measuring blood pressure and heart rate were inserted into their left carotid artery and a catheter for administration of test compound was inserted into their […]. After their blood pressure and heart rate were stabilized, 300 μg/kg of 5-hydroxytryptamine creatinine sulfate (serotonin) was rapidly intravenously administered and thereby induced transient bradycardiac reaction (BC 1) was observed. When the blood pressure and heart rate were re-stabilized after the serotonic administration, the test compounds were intravenously administered to the rats. Ten minutes thereafter, 300 μg/kg of serotonin was once again rapidly intravenously administered and thereby induced transient bradycardiac reaction (BC 2) was observed. Percent inhibition of bradycardia manifestation of each test compound, i.e., BJ reflex inhibition, can be calculated according to the following expression: […]

5-HT1A receptor = target: T2, 5-HT1A receptor (Rattus norvegicus, UniProt P19327); experiment: Measurement of 5-HT1A receptor agonistic action on rats (in vivo): lower lip retraction and flat body posture; conditions: SD male rats, 10 mg/kg intraperitoneal; maximum of group evaluation points, 4 grades 0-3, observed 5-30 min after administration
T2 construct: from tissue; host or cells: whole animal (SD male rats), behavioural read-out
T2 sequence (P19327 1-422): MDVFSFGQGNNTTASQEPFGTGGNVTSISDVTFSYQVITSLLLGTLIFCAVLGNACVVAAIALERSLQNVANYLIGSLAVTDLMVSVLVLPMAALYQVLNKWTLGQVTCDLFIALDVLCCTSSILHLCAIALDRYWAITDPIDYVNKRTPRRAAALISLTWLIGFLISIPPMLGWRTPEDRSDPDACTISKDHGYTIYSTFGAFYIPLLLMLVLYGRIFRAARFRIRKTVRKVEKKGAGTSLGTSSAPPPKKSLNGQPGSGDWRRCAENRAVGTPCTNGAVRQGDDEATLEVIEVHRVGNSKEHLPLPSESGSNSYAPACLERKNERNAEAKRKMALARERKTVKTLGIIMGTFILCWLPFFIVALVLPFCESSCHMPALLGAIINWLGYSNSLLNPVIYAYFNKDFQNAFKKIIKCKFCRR
Description: (3) Measurement of 5-HT1A Receptor Agonistic Action on Rats (in Vivo):
Seven weeks old SD male rats were divided into 4-5 rats per group which were accustomized to the experimental environments twice. A week after the second accustomization, the rats were put into a transparent plastic case, and 10 mg/kg of a test compound (as dissolved in 1N-hydrochloric acid and diluted with suitable amount of saline) was intraperitoneally administered thereto. Immediately before the administration and 5, 10, 20 and 30 minutes after the administration, behaviors of the rats were observed as to lower lip retraction (LLP) and flat body posture (FBP). The results were evaluated in 4 grades (0: no reaction, 1: feeble reaction, 2: medium reaction, 3: maximum reaction).

Row | Structure (SMILES) | 5-HT1A Receptor Agonistic Action on Rats, FBP (5-HT1A receptor) | 5-HT1A Receptor Agonistic Action on Rats, LLR (5-HT1A receptor) | other results
1 | Cc1cc(N2CCN(CCCCc3nc4c(c(=O)n3C)CCCC4)CC2)nc2ccccc12 [Example 7-6, 3-methyl-2-[4-[4-(4-methylquinolin-2-yl)piperazin-1-yl]butyl]-5,6,7,8-tetrahydro-3H-quinazolin-4-one] | 2.0 | 2.4 | BC Inhibition (%) (5-HT3 receptor; dose 0.01 mg/kg intravenous): 58.5%
2 | CCn1c(CCCCN2CCN(c3ccc4ccccc4n3)CC2)nc2c(c1=O)CCCC2 [Example 7-2, 3-2-[4-(4-quinolin-2-ylpiperazin-1-yl)butyl]-5,6,7,8-tetrahydro-3H-quinazolin-4-one] | 0.4 | 0.2 | 
3 | c1cc2ccsc2c(N2CCN3CCC[C@H]3C2)n1 [Production Example 103, 7-((8aS)-octahydropyrrolo[1,2-a]pyrazin-2-yl)thieno[2,3-c]pyridine] | 0.4 | 3.0 | BC Inhibition (%) (5-HT3 receptor; dose 3.0 mg/kg intravenous): 57.6%
4 | CCn1c(CCCCN2CCN(c3cc(C)c4ccccc4n3)CC2)nc2c(c1=O)CCCC2 [Example 7-7, 3-ethyl-2-[4-[4-(4-methylquinolin-2-yl)piperazin-1-yl]butyl]-5,6,7,8-tetrahydro-3H-quinazolin-4-one] | 2.2 | 2.2 | BC Inhibition (%) (5-HT3 receptor; dose 1.0 mg/kg intravenous): 85.4%
5 | Nn1c(CCCCN2CCN(c3ccc4ccccc4n3)CC2)nc2cccc(Cl)c2c1=O [Example 4-25, 3-amino-5-chloro-2-[4-(4-quinolin-2-ylpiperazin-1-yl)butyl]-3H-quinazolin-4-one] | 1.0 | 0.8 | BC Inhibition (%) (5-HT3 receptor; dose 0.1 mg/kg intravenous): 49.1%
6 | Clc1ccc2ccnc(N3CCNCC3)c2c1 [Production Example 49, 7-chloro-1-piperazin-1-ylisoquinoline] | 1.8 | 2.2 | BC Inhibition (%) (5-HT3 receptor; dose 1.0 mg/kg intravenous): 96.8%
7 | Cc1ccc2ccnc(N3CCN(C)CC3)c2c1 [Production Example 47, 7-methyl-1-(4-methylpiperazin-1-yl)isoquinoline] |  |  | BC Inhibition (%) (5-HT3 receptor; dose 1.0 mg/kg intravenous): 89.9%
8 | COc1ccc2ccnc(N3CCN4CCC[C@H]4C3)c2c1 [Production Example 72, 1-((8aS)-octahydropyrrolo[1,2-a]pyrazin-2-yl)-7-methoxyisoquinoline] | 3.0 | 3.0 | BC Inhibition (%) (5-HT3 receptor; dose 0.3 mg/kg intravenous): 72.5%
9 | Clc1ccc2ccnc(N3CCN4CCC[C@H]4C3)c2c1 [Production Example 73, 7-chloro-1-((8aS)-octahydropyrrolo[1,2-a]pyrazin-2-yl)isoquinoline] | 2.2 | 2.4 | BC Inhibition (%) (5-HT3 receptor; dose 0.01 mg/kg intravenous): 52.2%
10 | CN1CCN(c2nccc3ccsc23)CC1 [Production Example 6, 7-(4-methylpiperazin-1-yl)thieno[2,3-c]pyridine] | 2.4 | 2.8 | 
11 | Nn1c(CCCCN2CCN(c3ccc4ccccc4n3)CC2)nc2ccccc2c1=O [Example 4-3, 3-amino-2-[4-(4-quinolin-2-ylpiperazin-1-yl)butyl]-3H-quinazolin-4-one] | 1.8 | 1.8 | BC Inhibition (%) (5-HT3 receptor; dose 1.0 mg/kg intravenous): 90.1%
12 | CN1CCN(c2nccc3sccc23)CC1 [Production Example 8, 4-(4-methylpiperazin-1-yl)thieno[3,2-c]pyridine] | 0.8 | 2.0 | 
13 | Cc1cc(N2CCN(CCCCc3nc4ccccc4c(=O)n3N)CC2)nc2ccccc12 [Example 4-4, 3-amino-2-[4-[4-(4-methylquinolin-2-yl)piperazin-1-yl]butyl]-3H-quinazolin-4-one] | 2.6 | 2.8 | BC Inhibition (%) (5-HT3 receptor; dose 0.1 mg/kg intravenous): 68.7%
14 | COc1ccc2ccnc(N3CCNC(C)C3)c2c1 (stereo not drawn) [Production Example 38, 7-methoxy-1-(3-methylpiperazin-1-yl)isoquinoline] |  |  | BC Inhibition (%) (5-HT3 receptor; dose 1.0 mg/kg intravenous): 82.9%
15 | Cn1c(CCCCN2CCN(c3ccc4ccccc4n3)CC2)nc2ccccc2c1=O [Example 7-20, 3-methyl-2-[4-(4-quinolin-2-ylpiperazin-1-yl)butyl]-3H-quinazolin-4-one] | 1.8 | 1.6 | BC Inhibition (%) (5-HT3 receptor; dose 0.01 mg/kg intravenous): 64.7%
16 | Nn1c(CCCCN2CCN(c3ccc4ccccc4n3)CC2)nc2c(c1=O)CCCC2 [Example 4-1, 3-amino-2-[4-(4-quinolin-2-ylpiperazin-1-yl)butyl]-5,6,7,8-tetrahydro-3H-quinazolin-4-one] | 1.8 | 1.5 | BC Inhibition (%) (5-HT3 receptor; dose 0.1 mg/kg intravenous): 70.4%
17 | c1cc2ccsc2c(N2CCN3CCC[C@@H]3C2)n1 [Production Example 108, 7-((8aR)-octahydropyrrolo[1,2-a]pyrazin-2-yl)thieno[2,3-c]pyridine] | 0.4 | 2.4 | 
18 | Cc1cc2c(N3CCN4CCC[C@H]4C3)nccc2s1 [Production Example 107, 4-((8aS)-octahydropyrrolo[1,2-a]pyrazin-2-yl)-2-methylthieno[3,2-c]-pyridine] | 3.0 | 2.8 | 
19 | Nn1c(CCCCN2CCN(c3ccc4ccccc4n3)CC2)nc2ccsc2c1=O [Example 4-18, 3-amino-2-[4-(4-quinolin-2-ylpiperazin-1-yl)butyl]-3H-thieno[3,2-d]-pyrimidin-4-one] | 2.8 | 2.2 | BC Inhibition (%) (5-HT3 receptor; dose 0.1 mg/kg intravenous): 35.6%
20 | c1cc2sccc2c(N2CCN3CCC[C@H]3C2)n1 [Production Example 104, 4-((8aS)-octahydropyrrolo[1,2-a]pyrazin-2-yl)thieno[3,2-c]pyridine] | 0.2 | 1.6 | BC Inhibition (%) (5-HT3 receptor; dose 10.0 mg/kg intravenous): 46.1%
21 | c1cc2ccoc2c(N2CCN3CCC[C@H]3C2)n1 [Production Example 102, 7-((8aS)-octahydropyrrolo[1,2-a]pyrazin-2-yl)furo[2,3-c]-pyridine] | 3.0 | 3.0 | BC Inhibition (%) (5-HT3 receptor; dose 3.0 mg/kg intravenous): 61.5%
22 | Cn1c(CCCCN2CCN(c3ccc4ccccc4n3)CC2)nc2c(c1=O)CCCC2 [Example 7-1, 3-methyl-2-[4-(4-quinolin-2-ylpiperazin-1-yl)butyl]-5,6,7,8-tetrahydro-3H-quinazolin-4-one] | 1.8 | 2.2 | BC Inhibition (%) (5-HT3 receptor; dose 0.1 mg/kg intravenous): 90.3%
